Assay results as given in US7868026B2, “Therapeutic compounds” (Pfizer Inc., priority 2005, dated 2011).
Where two headings read alike, the source gives them in different places.

Legend:
Type in all cases: biochemical
[1] = target: T1, CYP3A4 (Homo sapiens, UniProt P08684); assay: Determination of IC50 against CYP3A4 by measurement of inhibition of midazolam metabolism (human liver microsomes, 1-hydroxymidazolam by LC-MS/MS); design: 0.1 mg/mL human liver microsomes; conditions: 2 μM midazolam, 0.1 mg/mL human liver microsomes
T1 sequence (P08684 whole entry): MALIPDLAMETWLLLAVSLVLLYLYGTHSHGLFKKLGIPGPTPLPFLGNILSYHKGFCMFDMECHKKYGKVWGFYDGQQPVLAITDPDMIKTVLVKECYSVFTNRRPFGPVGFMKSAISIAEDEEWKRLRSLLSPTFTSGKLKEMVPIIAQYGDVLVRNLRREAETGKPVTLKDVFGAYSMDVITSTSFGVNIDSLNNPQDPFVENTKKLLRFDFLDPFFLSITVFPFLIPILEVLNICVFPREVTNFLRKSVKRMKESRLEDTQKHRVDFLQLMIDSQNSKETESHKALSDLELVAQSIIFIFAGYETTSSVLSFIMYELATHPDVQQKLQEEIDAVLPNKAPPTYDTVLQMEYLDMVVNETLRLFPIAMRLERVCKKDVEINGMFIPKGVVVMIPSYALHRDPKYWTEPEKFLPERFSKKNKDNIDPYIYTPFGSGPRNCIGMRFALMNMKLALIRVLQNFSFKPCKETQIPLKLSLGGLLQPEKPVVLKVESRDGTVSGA
Method in brief: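 Human liver microsomes (0.1 mg/mL) incubated 8 min with 2 μM midazolam and 1 mM NADPH in 100 mM potassium phosphate, pH 7.4. 1-Hydroxymidazolam quantified by LC-MS/MS (MRM) as peak area ratio to internal standard against a metabolite standard curve.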

[2] = target: T1, CYP3A4; assay: Determination of compound Kiapp against recombinant CYP3A4 enzyme (BFC fluorescent substrate)
Method in brief: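 Kiapp derived from initial velocities over the first 5 min of BFC (5 uM) oxidation, using Morrison's tight-binding equation for non-partial and Szedlacsek's for partial inhibitors. Inhibitor first pre-incubated ≥30 min with CYP3A4 (5.5 or 8 nM, ±b5) in pH 7.0 phosphate/TCEP/2% DMF at room temperature; 200 uM NADPH initiated.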

[3] = target: T1, CYP3A4; assay: Determination of IC50 against CYP3A4 by measurement of inhibition of testosterone metabolism (human liver microsomes, 6-β-OH-testosterone by LC-MS/MS); design: 0.1 mg/mL human liver microsomes; conditions: read-out: IC50 (Testo.)
Method in brief: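 6-β-OH-testosterone formation was read by LC-MS/MS (MRM, internal standard, standard curve) after eight minutes. Reaction contained testosterone 25 μM, NADPH 1 mM and microsomal protein 0.1 mg/mL in pH 7.4 potassium phosphate (100 mM).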

[4] = Baculo. enzyme preparation, read-out: Kiapp (BFC, Baculo.)
[5] = Super. enzyme preparation, read-out: Kiapp (BFC, Super.)

SMILES | IC50 [1] [nM] | Ki [2, 4] [nM] | Ki [2, 5] [nM] | IC50 [3] [nM]
COc1cncc(NS(=O)(=O)c2ccccc2C(=O)NC2CCCCC2)c1 [Example 187, N-cyclohexyl-2-{[(5-methoxypyridin-3-yl)amino]sulfonyl}benzamide] | 22 | 257 | 35.9 | 28
COc1ccc(CNC(=O)c2ccccc2S(=O)(=O)N(C)c2cccnc2)cc1 [Example 336, N-(4-methoxybenzyl)-2-{[methyl(pyridin-3-yl)amino]sulfonyl}benzamide] | 37 | 319 | 68.2 | 19
COc1cncc(NS(=O)(=O)c2ccccc2C(=O)NCCc2ccncc2)c1 [Example 383, 2-{[(5-methoxypyridin-3-yl)amino]sulfonyl}-N-(2-pyridin-4-ylethyl)benzamide] | 67 | 912 | 31 | 348
O=C(NC1(CO)CCCC1)c1ccccc1S(=O)(=O)Nc1cccnc1 [Example 23, N-[1-(hydroxymethyl)cyclo-pentyl]-2-[(pyridin-3-ylamino)sulfonyl]benzamide] | 103 | > 1000 | 280 | 325
COc1cncc(NS(=O)(=O)c2ccccc2C(=O)N(C)C(C)C)c1 [Example 282, N-isopropyl-2-{[(5-methoxypyridin-3-yl)amino]sulfonyl}-N-methylbenzamide] | 49 | 330 | 57.7 | 62
CCOCCNC(=O)c1ccccc1S(=O)(=O)Nc1cncc(OC)c1 [Example 237, N-(2-ethoxyethyl)-2-{[(5-methoxypyridin-3-yl)amino]sulfonyl}benzamide] | 125 | 979 | 142 | 215
COc1cncc(NS(=O)(=O)c2ccccc2C(=O)N2CCOC(c3c(F)cccc3F)C2)c1 (stereo not shown) [Example 196, 2-{[2-(2,6-difluorophenyl)morpholin-4-yl]carbonyl}-N-(5-methoxypyridin-3-yl)benzenesulfonamide] | 51 | 379 | 74.5 | 58
Cc1cncc(NS(=O)(=O)c2ccccc2C(=O)NCc2ccc(F)c(C(F)(F)F)c2)c1 [Example 316, N-[4-fluoro-3-(trifluoromethyl)benzyl]-2-{[(5-methylpyridin-3-yl)amino]sulfonyl}benzamide] | 17 | 8.4 | 1.2 | 27
COc1cncc(NS(=O)(=O)c2ccccc2C(=O)NCCCc2ccccc2OC)c1 [Example 234, N-[3-(2-methoxyphenyl)propyl]-2-{[(5-methoxypyridin-3-yl)amino]sulfonyl}benzamide] | > 750 | 37.9 | 8.1 | > 750
CNC(=O)c1ccc(CNC(=O)c2ccccc2S(=O)(=O)Nc2cccnc2)cc1 [Example 81, N-{4-[(methylamino)carbonyl]benzyl}-2-[(pyridin-3-ylamino)sulfonyl]benzamide] | 501 | > 1000 | 276 | < 3
O=C(NCc1cccc(F)c1F)c1ccccc1S(=O)(=O)Nc1cccnc1 [Example 87, N-(2,3-difluorobenzyl)-2-[(pyridin-3-ylamino)sulfonyl]benzamide] | 30 | 90 | 6.3 | 10
CCC(CC)NC(=O)c1ccccc1S(=O)(=O)Nc1cncc(OC)c1 [Example 193, N-(1-ethylpropyl)-2-{[(5-methoxypyridin-3-yl)amino]sulfonyl}benzamide] | 13 | 41.2 | 21.7 | 27
O=C(NCc1cccc(F)c1)c1ccccc1S(=O)(=O)Nc1cccnc1 [Example 43, N-(3-fluorobenzyl)-2-[(pyridin-3-ylamino)sulfonyl]benzamide] | 13.4 | 269 | 16.5 | 21.7
CCOc1cncc(NS(=O)(=O)c2ccccc2C(=O)NC(C)(C)CC)c1 [Example 300, N-(1,1-dimethylpropyl)-2-{[(5-ethoxypyridin-3-yl)amino]sulfonyl}benzamide] | 16 | 57.6 | 19.5 | 39
Cc1cncc(NS(=O)(=O)c2ccccc2C(=O)NCCC(C)C)c1 [Example 362, N-(3-methylbutyl)-2-{[(5-methylpyridin-3-yl)amino]sulfonyl}benzamide] | 26 | 94.4 | 22.9 | 44
CN(C)CCNC(=O)c1ccccc1S(=O)(=O)Nc1cccnc1 [Example 37] | > 750 | > 1000 | – | > 750
CCOc1cncc(NS(=O)(=O)c2ccccc2C(=O)NC2CCCCC2)c1 [Example 302, N-cyclohexyl-2-{[(5-ethoxypyridin-3-yl)amino]sulfonyl}benzamide] | 23 | 78.9 | 24.5 | 110
CCOc1cncc(NS(=O)(=O)c2ccccc2C(=O)NCC2CC2)c1 [Example 293, N-(cyclopropylmethyl)-2-{[(5-ethoxypyridin-3-yl)amino]sulfonyl}benzamide] | 81 | 268 | 58.1 | 145
CN(Cc1ccccc1)C(=O)c1ccccc1S(=O)(=O)Nc1cccnc1 [Example 55, N-benzyl-N-methyl-2-[(pyridin-3-ylamino)sulfonyl]benzamide] | 40.6 | 385 | 14.2 | 54.5
CCCCNC(=O)c1ccccc1S(=O)(=O)Nc1cncc(C#N)c1 [Example 24, N-butyl-2-{[(5-cyanopyridin-3-yl)amino]sulfonyl}benzamide] | 567 | > 1000 | – | > 750
O=C(NC1CCC1)c1ccccc1S(=O)(=O)Nc1cccnc1 [Example 65, N-cyclobutyl-2-[(pyridin-3-ylamino)sulfonyl]benzamide] | 254 | 920 | – | 214
COc1cncc(NS(=O)(=O)c2ccc(OCCN3CCNCC3)cc2C(=O)NCc2ccc(F)cc2)c1 [Example 253, N-(4-fluorobenzyl)-2-{[(5-methoxypyridin-3-yl)amino]sulfonyl}-5-(2-piperazin-1-ylethoxy)benzamide] | 50 | 203 | 35.2 | 80

Continued, values first:

IC50 [1] [nM] | Ki [2, 4] [nM] | Ki [2, 5] [nM] | IC50 [3] [nM] | SMILES
7.67 | 27.2 | 4.06 | 9.5 | Cc1cncc(NS(=O)(=O)c2ccccc2C(=O)N(C)Cc2ccc(F)c(F)c2)c1 [Example 286, N-(3,4-difluorobenzyl)-N-methyl-2-{[(5-methylpyridin-3-yl)amino]sulfonyl}benzamide]
13 | 84 | 5 | 11 | Cc1cncc(NS(=O)(=O)c2ccccc2C(=O)NCc2ccc(F)c(C)c2)c1 [Example 156, N-(4-fluoro-3-methylbenzyl)-2-{[(5-methylpyridin-3-yl)amino]sulfonyl}benzamide]
11 | 63 | 13.1 | 15 | Cc1cncc(NS(=O)(=O)c2ccccc2C(=O)NCc2cccc(F)c2)c1 [Example 342, N-(3-fluorobenzyl)-2-{[(5-methylpyridin-3-yl)amino]sulfonyl}benzamide]
9 | 24 | 1.3 | 9 | COc1cncc(NS(=O)(=O)c2ccccc2C(=O)NCc2cccc(Cl)c2F)c1 [Example 175, N-(3-chloro-2-fluorobenzyl)-2-{[(5-methoxypyridin-3-yl)amino]sulfonyl}benzamide]
5 | 248 | 58.8 | 10 | CC(C)CCN(C)C(=O)c1ccccc1S(=O)(=O)Nc1cccnc1 [Example 371, N-methyl-N-(3-methylbutyl)-2-[(pyridin-3-ylamino)sulfonyl]benzamide]
9 | 18.1 | 3.31 | 13 | CCOc1ccncc1NS(=O)(=O)c1ccccc1C(=O)NCCc1ccccc1C [Example 269, 2-{[(4-ethoxypyridin-3-yl)amino]sulfonyl}-N-[2-(2-methylphenyl)ethyl]benzamide]
10 | 107 | 8.7 | 19 | COc1cncc(NS(=O)(=O)c2ccccc2C(=O)NCCCc2ccccc2)c1 [Example 235, 2-{[(5-methoxypyridin-3-yl)amino]sulfonyl}-N-(3-phenylpropyl)benzamide]
< 3 | 3.6 | 2.9 | 6 | COc1cncc(NS(=O)(=O)c2ccccc2C(=O)NCc2cccc(Cl)c2C)c1 [Example 206, N-(3-chloro-2-methylbenzyl)-2-{[(5-methoxypyridin-3-yl)amino]sulfonyl}benzamide]
5 | 6.9 | 3.5 | 7 | COc1cncc(NS(=O)(=O)c2ccccc2C(=O)NCc2ccc(Cl)cc2C)c1 [Example 216]
